This is an account of results in the supplement of paper PMC10307832.

Assay in all cases: relative viability (nuclei count vs DMSO), 5 days (fraction); higher = more cells survive
Compound in the test “AZ505 + Alpelisib”: C1CCC(CC1)N(CCNCCC2=C3C(=C(C=C2)O)NC(=O)CO3)C(=O)CCNCCC4=CC(=C(C=C4)Cl)Cl [AZ505] + Cc1nc(NC(=O)N2CCC[C@H]2C(N)=O)sc1-c1ccnc(C(C)(C)C(F)(F)F)c1 [Alpelisib] (partner 2 µM)
An outline of the steps:
(§1)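 Lung cancer cell lines were seeded in 1536-well plates and dosed by pin tool the next day, with either a single drug or a fixed anchor-drug dose combined with five library-drug doses (not always all listed) spaced in √10 steps. Five days later, one step fixed the cells and stained their nuclei (final 0.05% Triton X-100, 1% formaldehyde, 1 ug/ml Hoechst), and nuclei were counted on 4× images. Relative viability is the nuclei count in treated wells divided by the count in vehicle wells, and each value is the median of duplicate plates.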

Compound in the test “Dactolisib + Pictilisib”: Cn1c(=O)n(-c2ccc(C(C)(C)C#N)cc2)c2c3cc(-c4cnc5ccccc5c4)ccc3ncc21 [Dactolisib] + CS(=O)(=O)N1CCN(Cc2cc3nc(-c4cccc5[nH]ncc45)nc(N4CCOCC4)c3s2)CC1 [Pictilisib] (partner 1 µM)
An outline of the steps: as §1

Compound in the test “Dactolisib + Pemetrexed”: Cn1c(=O)n(-c2ccc(C(C)(C)C#N)cc2)c2c3cc(-c4cnc5ccccc5c4)ccc3ncc21 [Dactolisib] + Nc1nc2[nH]cc(CCc3ccc(C(=O)N[C@@H](CCC(=O)O)C(=O)O)cc3)c2c(=O)[nH]1 [Pemetrexed] (partner 0.2 µM)
An outline of the steps:
as §1

Compound in the test “AZ505 + Palbociclib”: C1CCC(CC1)N(CCNCCC2=C3C(=C(C=C2)O)NC(=O)CO3)C(=O)CCNCCC4=CC(=C(C=C4)Cl)Cl [AZ505] + CC(=O)c1c(C)c2cnc(Nc3ccc(N4CCNCC4)cn3)nc2n(C2CCCC2)c1=O [Palbociclib] (partner 0.5 µM)
Put shortly:
as §1

EPLC-272H: the relative viability came out at 0.76 with AZ505 + Alpelisib (first compound 0.08 µM); 0.719 in the test with AZ505 + Alpelisib (first compound 0.253 µM); 0.679 in the test with AZ505 + Alpelisib (first compound 0.8 µM); 0.789 in the test with AZ505 + Alpelisib (first compound 2.53 µM); 0.958 with AZ505 + Alpelisib (first compound 8 µM); 0.316 in the test with Dactolisib + Pictilisib (first compound 0.002 µM). In addition, the relative viability in the test with Dactolisib + Pictilisib (first compound 0.006325 µM) worked out at 0.239; in the test with Dactolisib + Pictilisib (first compound 0.02 µM), 0.332; in the test with Dactolisib + Pictilisib (first compound 0.06325 µM) it was 0.373; with Dactolisib + Pictilisib (first compound 0.2 µM) it was 0.24; in the test with Dactolisib + Pemetrexed (first compound 0.002 µM), 0.214; in the test with Dactolisib + Pemetrexed (first compound 0.006325 µM), 0.333. Further, the relative viability stood at 0.294 with Dactolisib + Pemetrexed (first compound 0.02 µM); 0.36 with Dactolisib + Pemetrexed (first compound 0.06325 µM); 0.314 in the test with Dactolisib + Pemetrexed (first compound 0.2 µM); 0.272 in the test with AZ505 + Palbociclib (first compound 0.08 µM); 0.291 with AZ505 + Palbociclib (first compound 0.253 µM); 0.315 with AZ505 + Palbociclib (first compound 0.8 µM). Moreover, the relative viability was 0.298 in the test with AZ505 + Palbociclib (first compound 2.53 µM) and 0.35 with AZ505 + Palbociclib (first compound 8 µM).

For the cell line NCI-H1915, the relative viability stood at 1.01 with AZ505 + Alpelisib (first compound 0.08 µM); 1.1 with AZ505 + Alpelisib (first compound 0.253 µM); 0.977 with AZ505 + Alpelisib (first compound 0.8 µM); 0.986 with AZ505 + Alpelisib (first compound 2.53 µM); 1.08 with AZ505 + Alpelisib (first compound 8 µM); 1.01 with Dactolisib + Pictilisib (first compound 0.002 µM). Further, the relative viability in the test with Dactolisib + Pictilisib (first compound 0.006325 µM) was found to be 0.952; in the test with Dactolisib + Pictilisib (first compound 0.02 µM), 0.944; with Dactolisib + Pictilisib (first compound 0.06325 µM) it was 0.513; with Dactolisib + Pictilisib (first compound 0.2 µM), 0.483; in the test with Dactolisib + Pemetrexed (first compound 0.002 µM), 0.355; in the test with Dactolisib + Pemetrexed (first compound 0.006325 µM), 0.508. In addition, the relative viability came to 0.455 in the test with Dactolisib + Pemetrexed (first compound 0.02 µM); 0.425 in the test with Dactolisib + Pemetrexed (first compound 0.06325 µM); 0.42 in the test with Dactolisib + Pemetrexed (first compound 0.2 µM); 0.528 with AZ505 + Palbociclib (first compound 0.08 µM); 0.528 with AZ505 + Palbociclib (first compound 0.253 µM); 0.478 with AZ505 + Palbociclib (first compound 0.8 µM). Further, the relative viability in the test with AZ505 + Palbociclib (first compound 2.53 µM) stood at 0.44; in the test with AZ505 + Palbociclib (first compound 8 µM), 0.473.

As for NCI-H2405, the relative viability in the test with AZ505 + Alpelisib (first compound 0.08 µM) came to 0.4; with AZ505 + Alpelisib (first compound 0.253 µM), 0.426; in the test with AZ505 + Alpelisib (first compound 0.8 µM) it was 0.503; with AZ505 + Alpelisib (first compound 2.53 µM), 0.384; with AZ505 + Alpelisib (first compound 8 µM), 0.508; with Dactolisib + Pictilisib (first compound 0.002 µM), 0.343. Moreover, the relative viability was 0.475 with Dactolisib + Pictilisib (first compound 0.006325 µM); 0.423 with Dactolisib + Pictilisib (first compound 0.02 µM); 0.311 with Dactolisib + Pictilisib (first compound 0.06325 µM); 0.278 with Dactolisib + Pictilisib (first compound 0.2 µM); 1.1 with Dactolisib + Pemetrexed (first compound 0.002 µM); 1.03 in the test with Dactolisib + Pemetrexed (first compound 0.006325 µM). Besides, the relative viability with Dactolisib + Pemetrexed (first compound 0.02 µM) is 0.972; with Dactolisib + Pemetrexed (first compound 0.06325 µM), 0.641; with Dactolisib + Pemetrexed (first compound 0.2 µM), 0.378; with AZ505 + Palbociclib (first compound 0.08 µM) it was 0.427; in the test with AZ505 + Palbociclib (first compound 0.8 µM), 0.441; with AZ505 + Palbociclib (first compound 2.53 µM), 0.463. In addition, the relative viability with AZ505 + Palbociclib (first compound 8 µM) came out at 0.426.

Regarding NCI-H322M, the relative viability in the test with AZ505 + Alpelisib (first compound 0.08 µM) was 0.757; with AZ505 + Alpelisib (first compound 0.253 µM), 0.774; with AZ505 + Alpelisib (first compound 0.8 µM), 0.688; with AZ505 + Alpelisib (first compound 2.53 µM), 0.844; in the test with AZ505 + Alpelisib (first compound 8 µM), 0.79; in the test with Dactolisib + Pictilisib (first compound 0.002 µM) it was 0.504. Also, the relative viability stood at 0.564 with Dactolisib + Pictilisib (first compound 0.006325 µM); 0.34 in the test with Dactolisib + Pictilisib (first compound 0.02 µM); 0.448 in the test with Dactolisib + Pictilisib (first compound 0.06325 µM); 0.461 with Dactolisib + Pictilisib (first compound 0.2 µM); 0.664 in the test with Dactolisib + Pemetrexed (first compound 0.002 µM); 0.641 in the test with Dactolisib + Pemetrexed (first compound 0.006325 µM). Further, the relative viability in the test with Dactolisib + Pemetrexed (first compound 0.02 µM) turned out to be 0.643; with Dactolisib + Pemetrexed (first compound 0.06325 µM) it was 0.523; with Dactolisib + Pemetrexed (first compound 0.2 µM), 0.474; with AZ505 + Palbociclib (first compound 0.08 µM), 0.53; with AZ505 + Palbociclib (first compound 0.8 µM), 0.473; with AZ505 + Palbociclib (first compound 2.53 µM), 0.489. Also, the relative viability with AZ505 + Palbociclib (first compound 8 µM) worked out at 0.503.

On to NCI-H2170, for which the relative viability in the test with AZ505 + Alpelisib (first compound 0.08 µM) stood at 0.804; with AZ505 + Alpelisib (first compound 0.253 µM) it was 0.914; with AZ505 + Alpelisib (first compound 0.8 µM) it was 0.719; with AZ505 + Alpelisib (first compound 2.53 µM), 0.846; with AZ505 + Alpelisib (first compound 8 µM) it was 0.918; with Dactolisib + Pictilisib (first compound 0.002 µM), 0.305. Also, the relative viability was determined as 0.311 in the test with Dactolisib + Pictilisib (first compound 0.006325 µM); 0.289 with Dactolisib + Pictilisib (first compound 0.02 µM); 0.22 with Dactolisib + Pictilisib (first compound 0.06325 µM); 0.224 with Dactolisib + Pictilisib (first compound 0.2 µM); 0.262 with Dactolisib + Pemetrexed (first compound 0.002 µM); 0.258 in the test with Dactolisib + Pemetrexed (first compound 0.006325 µM). The relative viability with Dactolisib + Pemetrexed (first compound 0.02 µM) stood at 0.281; in the test with Dactolisib + Pemetrexed (first compound 0.06325 µM), 0.261; with Dactolisib + Pemetrexed (first compound 0.2 µM) it was 0.263; with AZ505 + Palbociclib (first compound 0.08 µM), 0.38; in the test with AZ505 + Palbociclib (first compound 0.253 µM) it was 0.39; with AZ505 + Palbociclib (first compound 0.8 µM) it was 0.379. Further, the relative viability amounted to 0.401 with AZ505 + Palbociclib (first compound 2.53 µM) and 0.434 with AZ505 + Palbociclib (first compound 8 µM).
